According to US12479866B2, “Boron-containing rho kinase inhibitors” (Percipiad, Inc., priority 2019, dated 2025):

How the values were obtained:
Assay type in all cases: biochemical
PKA [1] = target: T1, PKA (Homo sapiens (Human), UniProt P17612); assay: PKA ADP-Glo kinase enzyme inhibition assay; details: read-out: PKAIC50
Description: We measured ROCK and PKA kinase enzyme activity inhibition by compounds using commercially available ROCK1 (Promega Corporation, cat #V9581), ROCK2 (Promega, cat #V4045), and PKA kinase (Promega, cat #V4247) ADP-Glo™ assay kits. ADP-Glo™ Kinase Assay is a luminescent ADP detection assay that provides a homogeneous method to measure kinase activity by quantifying the amount of ADP produced during a kinase reaction. The assay is performed in two steps. First, after the kinase reaction, an equal volume of ADP-Glo™ Reagent is added to terminate the kinase reaction and deplete the remaining ATP. Second, the Kinase Detection Reagent is added to simultaneously convert ADP to ATP and allow the newly synthesized ATP to be measured using a luciferase/luciferin reaction. The light generated is measured using a luminometer. A complete protocol is included with the kits and is also available at the Promega website. The assay is briefly described below. • 1. Diluted enzyme, substrate, ATP, and compounds (inhibitors) in Kinase Buffer (40 mM Tris, 7.5, 20 mM MgCl2, 0.1 mg/ml BSA, 50 μM DTT). • 2. […]
(§1) Recorded luminescence (Integration time 1 second) using a plate-based luminometer.
Calculated Percent Enzyme Activity: First subtract the signal of the negative control (no enzyme and no inhibitor) from each sample's signal. […]

ROCK2 [2] = target: T2, ROCK2 (Homo sapiens (Human), UniProt O75116); assay: ROCK2 ADP-Glo kinase enzyme inhibition assay
Description: We measured ROCK and PKA kinase enzyme activity inhibition by compounds using commercially available ROCK1 (Promega Corporation, cat #V9581), ROCK2 (Promega, cat #V4045), and PKA kinase (Promega, cat #V4247) ADP-Glo™ assay kits. ADP-Glo™ Kinase Assay is a luminescent ADP detection assay that provides a homogeneous method to measure kinase activity by quantifying the amount of ADP produced during a kinase reaction. The assay is performed in two steps. First, after the kinase reaction, an equal volume of ADP-Glo™ Reagent is added to terminate the kinase reaction and deplete the remaining ATP. Second, the Kinase Detection Reagent is added to simultaneously convert ADP to ATP and allow the newly synthesized ATP to be measured using a luciferase/luciferin reaction. The light generated is measured using a luminometer. A complete protocol is included with the kits and is also available at the Promega website. The assay is briefly described below. • 1. Diluted enzyme, substrate, ATP, and compounds (inhibitors) in Kinase Buffer (40 mM Tris, 7.5, 20 mM MgCl2, 0.1 mg/ml BSA, 50 μM DTT). • 2. Added 1 μl of inhibitor, 2 μl of enzyme and 2 μl of substrate/ATP mix to the wells of 384-well low volume nonbinding assay plate A series of three-fold dilution of inhibitor was prepared and assayed for each inhibitor. • 3. Incubated at room temperature for 60 minutes. • 4. Added 5 μl of ADP-Glo™ Reagent. • 5. Incubated at room temperature for 60 minutes. • 6. Added 10 μl of Kinase Detection Reagent • 7. Incubated at room temperature for 30 minutes.
as §1
Target sequence in this assay (O75116 whole entry): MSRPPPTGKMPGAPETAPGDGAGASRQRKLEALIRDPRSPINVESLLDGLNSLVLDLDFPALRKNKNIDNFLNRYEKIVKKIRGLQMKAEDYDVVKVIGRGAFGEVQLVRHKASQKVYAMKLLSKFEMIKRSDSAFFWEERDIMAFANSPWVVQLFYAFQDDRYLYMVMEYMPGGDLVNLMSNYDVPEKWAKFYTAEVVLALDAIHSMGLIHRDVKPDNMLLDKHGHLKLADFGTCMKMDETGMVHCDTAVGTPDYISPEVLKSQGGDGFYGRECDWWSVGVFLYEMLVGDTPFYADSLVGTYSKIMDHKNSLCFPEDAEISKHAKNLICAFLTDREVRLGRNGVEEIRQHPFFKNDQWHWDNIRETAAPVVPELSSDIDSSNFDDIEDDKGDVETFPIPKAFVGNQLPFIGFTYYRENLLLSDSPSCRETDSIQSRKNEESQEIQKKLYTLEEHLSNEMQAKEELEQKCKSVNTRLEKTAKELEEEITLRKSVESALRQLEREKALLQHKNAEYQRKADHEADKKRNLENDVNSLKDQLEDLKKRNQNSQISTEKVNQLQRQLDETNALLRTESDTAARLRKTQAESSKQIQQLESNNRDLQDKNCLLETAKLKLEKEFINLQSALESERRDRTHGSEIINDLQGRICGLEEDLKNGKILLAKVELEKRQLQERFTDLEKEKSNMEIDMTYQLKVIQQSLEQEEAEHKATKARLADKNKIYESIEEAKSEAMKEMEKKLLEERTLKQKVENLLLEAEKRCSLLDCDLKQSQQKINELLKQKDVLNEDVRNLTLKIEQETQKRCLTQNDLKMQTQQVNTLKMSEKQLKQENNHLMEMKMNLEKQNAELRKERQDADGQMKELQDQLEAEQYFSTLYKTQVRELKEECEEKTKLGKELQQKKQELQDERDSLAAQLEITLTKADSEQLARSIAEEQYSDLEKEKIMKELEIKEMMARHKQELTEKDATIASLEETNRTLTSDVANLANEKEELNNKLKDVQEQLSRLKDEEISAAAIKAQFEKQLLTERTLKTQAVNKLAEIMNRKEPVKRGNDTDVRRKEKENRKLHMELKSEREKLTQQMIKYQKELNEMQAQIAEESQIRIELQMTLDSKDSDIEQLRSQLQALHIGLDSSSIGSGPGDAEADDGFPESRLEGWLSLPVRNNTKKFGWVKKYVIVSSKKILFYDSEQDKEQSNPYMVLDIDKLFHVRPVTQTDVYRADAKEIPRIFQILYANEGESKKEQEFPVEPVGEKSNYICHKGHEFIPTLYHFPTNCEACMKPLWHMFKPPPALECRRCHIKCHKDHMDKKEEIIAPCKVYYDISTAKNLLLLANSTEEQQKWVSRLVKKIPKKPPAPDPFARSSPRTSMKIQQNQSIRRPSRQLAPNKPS
Calculated Percent Enzyme Activity: First subtract the signal of the negative control (no enzyme and no inhibitor) from each sample's signal. Then use the mean relative light units (RLU) values for the 0% kinase activity (neither inhibitor nor enzyme) and the 100% kinase activity (no compound) to calculate the other percent enzyme activities remaining in the presence of the different dilutions of inhibitor.
Inhibitor stock solutions of 10 mM are made in DMSO and stored at −20° C. Dilutions were made in assay buffer immediately before use.

MRCKa = MRCKa (Homo sapiens (Human), UniProt Q5VT25); assay: Radioisotope filter binding kinase assay; details: 10 uM ATP, read-out: IC50 estimates, MRCKa
Description: (§2) Experiment was conducted by Absorption Systems. […] The radioisotope filter binding assay is considered the gold standard for kinase profiling. The assay directly detects the true product without the use of modified substrates, coupling enzymes, or detection antibodies. Compounds are incubated with kinase, substrate, cofactors, and radioisotope-labeled ATP (^33P-Y-ATP). The reaction mixtures are then spotted onto filter papers, which bind the radioisotope-labeled catalytic product. Unreacted phosphate is removed via washing of the filter papers.
(§3) • Prepare kinase-specific substrate in freshly prepared Base Reaction Buffer (20 mM Hepes (pH 7.5), 10 mM MgCl2, 1 mM EGTA, 0.02% Brij35, 0.02 mg/ml BSA, 0.1 mM Na3VO4, 2 mM DTT, 10 µM ATP, and 1% DMSO). • Add kinase enzyme into the substrate solution and gently mix. • Add compounds in DMSO into the kinase reaction mixture by Acoustic technology (Echo550; nanoliter range), incubate for 20 minutes at room temperature. • Add ^33P-ATP (specific activity 10 μCi/μl)) into the reaction mixture to initiate the reaction. • Incubate kinase reaction for 2 hours at room temperature. • Spot reactions onto P81 ion exchange paper. • Detect kinase activity by filter-binding method.

PKA [3] = target: T1, PKA; assay: Radioisotope filter binding kinase assay; details: 10 uM ATP, read-out: IC50 estimates, PKA
Description: as §2, §3

ROCK2 [4] = target: T2, ROCK2; assay: Radioisotope filter binding kinase assay; details: 10 uM ATP, read-out: IC50 estimates, ROCK2
Description: as §2, §3
Target sequence in this assay (O75116 whole entry, species assumed): as the sequence (O75116 whole entry) above

PKCtheta = PKCtheta (Homo sapiens (Human), UniProt Q04759); assay: Radioisotope filter binding kinase assay; details: 10 uM ATP, read-out: IC50 estimates, PKCtheta
Description: as §2, §3

ROCK1 = ROCK1 (Homo sapiens (Human), UniProt Q13464); assay: Radioisotope filter binding kinase assay; details: 10 uM ATP, read-out: IC50 estimates, ROCK1
Description: as §2, §3

Chain of MRCKa (Q5VT25 whole entry): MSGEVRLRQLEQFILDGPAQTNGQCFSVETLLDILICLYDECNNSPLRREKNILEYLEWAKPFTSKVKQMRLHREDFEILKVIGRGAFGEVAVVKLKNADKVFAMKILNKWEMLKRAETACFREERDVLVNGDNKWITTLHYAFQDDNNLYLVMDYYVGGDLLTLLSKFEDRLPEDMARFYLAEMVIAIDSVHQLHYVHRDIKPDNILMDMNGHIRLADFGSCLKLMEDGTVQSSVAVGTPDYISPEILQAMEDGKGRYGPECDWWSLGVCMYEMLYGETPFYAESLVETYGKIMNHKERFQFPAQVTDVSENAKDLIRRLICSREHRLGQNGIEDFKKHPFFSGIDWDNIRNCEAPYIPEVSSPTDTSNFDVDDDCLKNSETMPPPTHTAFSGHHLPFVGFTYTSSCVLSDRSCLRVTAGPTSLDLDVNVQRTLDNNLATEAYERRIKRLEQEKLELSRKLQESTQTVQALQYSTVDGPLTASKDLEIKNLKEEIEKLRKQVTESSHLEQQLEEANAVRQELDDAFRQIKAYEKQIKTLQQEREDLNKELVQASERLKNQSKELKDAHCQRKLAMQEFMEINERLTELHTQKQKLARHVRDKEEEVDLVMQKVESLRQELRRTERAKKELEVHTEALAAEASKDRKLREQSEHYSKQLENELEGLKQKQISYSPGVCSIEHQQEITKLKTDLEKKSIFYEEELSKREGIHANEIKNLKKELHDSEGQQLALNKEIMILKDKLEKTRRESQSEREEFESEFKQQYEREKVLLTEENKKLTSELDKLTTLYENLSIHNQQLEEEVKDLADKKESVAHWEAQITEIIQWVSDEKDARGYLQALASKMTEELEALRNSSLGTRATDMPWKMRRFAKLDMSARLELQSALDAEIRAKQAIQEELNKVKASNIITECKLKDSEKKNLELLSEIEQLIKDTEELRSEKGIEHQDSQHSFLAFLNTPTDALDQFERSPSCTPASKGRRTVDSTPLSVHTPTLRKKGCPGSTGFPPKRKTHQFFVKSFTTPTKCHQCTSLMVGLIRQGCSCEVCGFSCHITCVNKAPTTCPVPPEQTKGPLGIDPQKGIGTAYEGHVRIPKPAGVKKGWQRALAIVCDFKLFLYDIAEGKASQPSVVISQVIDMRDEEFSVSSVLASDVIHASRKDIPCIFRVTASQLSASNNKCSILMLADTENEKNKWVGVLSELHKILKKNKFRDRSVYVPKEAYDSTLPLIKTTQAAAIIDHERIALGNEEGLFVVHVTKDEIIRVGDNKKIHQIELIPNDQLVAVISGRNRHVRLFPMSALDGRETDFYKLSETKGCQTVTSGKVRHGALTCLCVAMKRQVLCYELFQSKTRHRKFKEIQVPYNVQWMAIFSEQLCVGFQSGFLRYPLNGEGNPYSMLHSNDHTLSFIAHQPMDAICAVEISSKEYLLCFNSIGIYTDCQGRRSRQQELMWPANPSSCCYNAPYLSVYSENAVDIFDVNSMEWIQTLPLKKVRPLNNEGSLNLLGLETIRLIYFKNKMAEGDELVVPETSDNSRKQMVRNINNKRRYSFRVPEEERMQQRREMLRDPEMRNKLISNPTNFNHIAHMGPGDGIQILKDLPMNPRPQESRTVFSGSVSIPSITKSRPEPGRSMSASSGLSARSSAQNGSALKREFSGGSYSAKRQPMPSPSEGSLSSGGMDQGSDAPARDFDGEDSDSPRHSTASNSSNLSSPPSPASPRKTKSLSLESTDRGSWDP
Chain of PKCtheta (Q04759 whole entry): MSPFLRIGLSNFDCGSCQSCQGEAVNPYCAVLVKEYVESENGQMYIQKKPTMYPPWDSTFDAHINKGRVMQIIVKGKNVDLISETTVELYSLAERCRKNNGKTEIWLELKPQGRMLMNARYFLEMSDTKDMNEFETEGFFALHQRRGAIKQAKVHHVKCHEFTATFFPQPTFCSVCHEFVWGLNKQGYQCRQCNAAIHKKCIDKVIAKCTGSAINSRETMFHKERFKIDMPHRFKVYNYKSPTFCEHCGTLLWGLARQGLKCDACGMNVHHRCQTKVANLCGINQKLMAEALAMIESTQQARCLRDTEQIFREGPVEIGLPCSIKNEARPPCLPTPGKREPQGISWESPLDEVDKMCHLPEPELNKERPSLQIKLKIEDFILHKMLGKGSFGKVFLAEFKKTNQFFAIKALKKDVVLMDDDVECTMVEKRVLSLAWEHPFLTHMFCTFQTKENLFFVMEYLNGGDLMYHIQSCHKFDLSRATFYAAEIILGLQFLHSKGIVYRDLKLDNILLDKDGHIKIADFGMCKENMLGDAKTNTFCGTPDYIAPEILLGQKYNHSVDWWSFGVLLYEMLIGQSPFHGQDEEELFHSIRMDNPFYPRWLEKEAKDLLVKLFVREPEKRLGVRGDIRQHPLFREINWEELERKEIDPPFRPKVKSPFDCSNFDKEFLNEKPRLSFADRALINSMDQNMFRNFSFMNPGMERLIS

## NCC(C(=O)Nc1ccc2cnccc2c1)c1ccc(CO)cc1 (racemic) [Netarsudil-M1-racemate•2HCl, Netarsdil-M1-(racemic), reference compound]
PKA [1]
  IC50: 0.023 µM
ROCK2 [2]; Exp #2, read-out: ROCK2 IC50(Exp #2)
  IC50: 0.066 µM
ROCK2 [2]; Exp #3, read-out: ROCK2 IC50(Exp #3)
  IC50: 0.015 µM
MRCKa
  IC50: > 10 µM
PKA [3]
  IC50: 0.012 µM
ROCK2 [4]
  IC50: 0.006 µM
PKCtheta
  IC50: 5.13 µM
ROCK1
  IC50: 0.015 µM
